This is an account of results in PubChem BioAssay AID179 (DTP/NCI, 2004).

This assay has as its system CEM cells HIV-1 protection, formazan growth assay. The assay can be described thus: NCI AIDS Antiviral Assay. Conditions: for IC50: measured here: growth of uninfected CEM cells. The method in brief: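 Protection of CEM cells against HIV-1 measured as cell growth via soluble formazan read-out, with five concentrations tested on both infected and uninfected cells; failure to protect may reflect toxicity.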

Calls of active or inactive are those of the source.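 Rule for the calls: active = compounds giving half or more protection of infected cells from virus-caused growth loss, again on retest; inactive = the rest.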

Turning to `N#CC1=C(O)NC(O)=C(C#N)C1c1ccc(Cl)cc1Cl`, the EC50 is > 17 µM and the IC50 was > 17 µM.

As to `c1ccc(-c2c(-c3ccccc3)c2=NN(c2ccccc2)c2ccccc2)cc1`, the EC50 is > 200 µM and the IC50 is 11 µM.

Take `CC(=O)c1cc2ccccc2oc1=O`: the EC50 was > 138 µM and the IC50 is > 138 µM.

As to `O=C1C=C(Nc2ccccc2C(=O)CC(=O)C(=O)Nc2cccc(C(F)(F)F)c2)c2ccccc2C1=O`, the EC50 was > 37.2 µM and the concentration for half-maximal inhibition (IC50) was 6.61 µM.

Consider `CC(C)(C)OC(=O)NCCCCC(NC(=O)c1ccccc1)C(N)=O` (stereo unspecified), for which the EC50 is > 200 µM and the IC50 is > 200 µM.

As to `CC(=O)N(C(C)=O)c1ccc(-c2cccs2)oc1=O`, the EC50 is > 200 µM and the IC50 was > 200 µM.

For the compound `O=S1(=O)CCCS(=O)(=O)C(c2ccccc2)=C1c1ccccc1`, the EC50 was > 145 µM and the half-inhibitory concentration (IC50) was determined as 50.1 µM.

Consider `CN(C)c1c(C2OC(CO)C(O)C2O)c(=O)c1=O` (stereo unspecified), for which the EC50 was > 200 µM and the IC50 is > 200 µM.

For the compound `CCC(/C(=N/NC(=O)C[N+](C)(C)C)c1ccccc1)C1OC(=O)c2ccccc21` (stereo unspecified), the EC50 is > 575 µM and the IC50 is > 575 µM.

For `COc1ccc(C2NC(=S)N3C(c4ccc(OC)c(OC)c4)NC(=S)N23)cc1OC` (stereo unspecified), the EC50 was > 200 µM and the IC50 is > 200 µM.

`COC(=O)C1=C(CS(=O)c2ccccc2[N+](=O)[O-])ON(C)C1c1ccccc1` (stereo unspecified): the result was inactive.

With `O=P1(O)c2ccccc2CCc2ccccc21`, the EC50 is > 200 µM and the IC50 is > 200 µM.

Consider `N#Cc1c(=N)cc2c3ccccc3oc3c(C#N)c(N)[nH]c1c32`, for which the EC50 was > 200 µM and the IC50 was determined as 195 µM.

With `NC(=O)CCNC(=O)c1ccccc1SC(=O)NCCBr`, the EC50 was 1.38 µM and the IC50 stood at 10 µM.

Regarding `COc1ccc2c(C(=O)O)cc3ccccc3c2c1OC`, the outcome was inactive.

As to `Cc1noc2nccnc12`, the EC50 was > 186 µM and the IC50 was > 186 µM.

As to `CSC(SC)=C(C#N)C(N)=S`, the EC50 is > 200 µM and the IC50 turned out to be 123 µM.

Turning to `COc1ccc(C2=NC(c3ccccc3)N3C(c4ccccc4)NC(c4ccccc4)C2C3c2ccccc2)cc1` (stereo unspecified), the result was inactive.

Take `O=C(NCCCC1C2CCC(C2)C1CNC(=O)Nc1cccc(Cl)c1)Nc1cccc(Cl)c1` (stereo unspecified): the EC50 was > 200 µM and the IC50 is 3.63 µM.

As to `CC(=O)[O-].CC(=O)[O-].[Mn+2].c1ccc(/C(=N\Nc2ccccn2)c2ccccn2)cc1`, the outcome was inactive.

As to `COc1cccc2c1C(c1ccc3ccccc3c1)OC2=O` (stereo unspecified), the EC50 is > 46.8 µM and the IC50 stood at 25.1 µM.

As for `O=C(NNCC(O)COc1ccccc1)c1ccccc1` (stereo unspecified), the EC50 is > 200 µM and the IC50 was > 200 µM.

With `CC(C)(C)c1ccc(SSc2ccc(C(C)(C)C)cc2)cc1`, the EC50 was > 200 µM and the IC50 amounted to 12.3 µM.

Take `CCCCCC(=O)OC1(C(C)=O)CCC2C3CCC4=CC(=O)CCC4C3CCC21C` (stereo unspecified): the EC50 was > 200 µM and the IC50 is 14.5 µM.

Take `C=CCC(CC(CC=C)C(=O)O)C(=O)O` (stereo unspecified): the EC50 is > 1170 µM and the IC50 was > 1170 µM.

As to `CCC1=C(c2cccc(OC(C)=O)c2)C(C)c2ccc(OC(C)=O)cc21` (stereo unspecified), the EC50 was > 200 µM and the half-inhibitory concentration (IC50) turned out to be 7.41 µM.

On to `C#CCCCC(=C)C[C@@H]1OC(=O)[C@H](C)[C@@H]1O`, for which the EC50 is > 200 µM and the IC50 is > 200 µM.

Regarding `Cc1ccc(-n2cc([Si](C)(C)C)nn2)s1`, the EC50 was > 200 µM and the IC50 worked out at 123 µM.

As for `CC(C)=CC1C(C(=O)N2CCCCCC2)C1(C)C` (stereo unspecified), the EC50 is > 200 µM and the IC50 was > 200 µM.

With `CCOC(=O)CCNC(=O)Sc1ccccc1C(=O)NCCC(N)=O`, the concentration giving a half-maximal response (EC50) turned out to be 1.2 µM and the IC50 turned out to be 110 µM.
